Laboratory results reported in PubChem BioAssay (NCI).
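1) Cells in 96-well plates. 2) Compound, 48 h, 5 concentrations. 3) Linear interpolation between surrounding doses. 4) Unreached endpoint = highest concentration. The concentration for full growth arrest is given as TGI.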

What was measured:
Test in all cases: NCI-60 cell line screen, 48 h
SF-295 CNS = test system: SF-295 CNS
A498 renal = test system: A498 renal
OVCAR-5 ovarian = test system: OVCAR-5 ovarian
SN12C renal = test system: SN12C renal
HS 578T breast = test system: HS 578T breast
NCI/ADR-RES ovarian = test system: NCI/ADR-RES ovarian
EKVX NSCLC = test system: EKVX NSCLC
SF-268 CNS = test system: SF-268 CNS
SK-MEL-28 melanoma = test system: SK-MEL-28 melanoma
MALME-3M melanoma = test system: MALME-3M melanoma
PC-3 prostate = test system: PC-3 prostate
MOLT-4 leukemia = test system: MOLT-4 leukemia
ACHN renal = test system: ACHN renal
786-0 renal = test system: 786-0 renal
MDA-MB-231 breast = test system: MDA-MB-231 breast
NCI-H522 lung = test system: NCI-H522 lung
UACC-62 melanoma = test system: UACC-62 melanoma
DU-145 prostate = test system: DU-145 prostate
A549 NSCLC = test system: A549 NSCLC
UO-31 renal = test system: UO-31 renal
SF-539 CNS = test system: SF-539 CNS
HCT-15 colon = test system: HCT-15 colon
RXF 393 renal = test system: RXF 393 renal
NCI-H226 lung = test system: NCI-H226 lung
M14 melanoma = test system: M14 melanoma
IGROV1 ovarian = test system: IGROV1 ovarian
U251 CNS = test system: U251 CNS
HL-60(TB) leukemia = test system: HL-60(TB) leukemia
KM12 colon = test system: KM12 colon
TK-10 renal = test system: TK-10 renal
SW-620 colon = test system: SW-620 colon
NCI-H460 lung = test system: NCI-H460 lung
K-562 leukemia = test system: K-562 leukemia
SK-MEL-5 melanoma = test system: SK-MEL-5 melanoma
RPMI-8226 leukemia = test system: RPMI-8226 leukemia
OVCAR-8 ovarian = test system: OVCAR-8 ovarian
NCI-H23 lung = test system: NCI-H23 lung
SR leukemia = test system: SR leukemia
UACC-257 melanoma = test system: UACC-257 melanoma
CAKI-1 renal = test system: CAKI-1 renal
HOP-92 NSCLC = test system: HOP-92 NSCLC
CCRF-CEM leukemia = test system: CCRF-CEM leukemia
MDA-MB-435 = test system: MDA-MB-435
MCF7 breast = test system: MCF7 breast
OVCAR-4 ovarian = test system: OVCAR-4 ovarian
MDA-N = test system: MDA-N
OVCAR-3 ovarian = test system: OVCAR-3 ovarian
SK-MEL-2 melanoma = test system: SK-MEL-2 melanoma
COLO 205 colon = test system: COLO 205 colon
T-47D breast = test system: T-47D breast
SK-OV-3 ovarian = test system: SK-OV-3 ovarian
HCT-116 colon = test system: HCT-116 colon
LOX IMVI melanoma = test system: LOX IMVI melanoma
SNB-19 CNS = test system: SNB-19 CNS
SNB-75 CNS = test system: SNB-75 CNS
HOP-62 NSCLC = test system: HOP-62 NSCLC
HT29 colon = test system: HT29 colon
HCC-2998 colon = test system: HCC-2998 colon

Measured: TGI

Cc1ccc(NC(=S)N=Nc2c(O)[nH]c3ccccc23)cc1
> 100 µM: all assays above

CCOC(OCC)[C@H](N)[C@@H](O)[C@@H](O)[C@H]1COC(C)(C)O1
not listed: NCI-H522 lung | SF-539 CNS | RXF 393 renal | HL-60(TB) leukemia | NCI-H460 lung | CAKI-1 renal | HOP-92 NSCLC | T-47D breast | HCC-2998 colon
> 100 µM: all other assays above
